Measurements published in patent EP0326329B1, “Quinazoline derivatives useful as insecticides” (Dow AgroSciences LLC, priority 1988, dated 1989).

Legend:
Format in all cases: in vivo
[1] = tested on: Pyricularia oryzae (rice blast); settings: disease control rating, foliar spray, host rice; 400 ppm (+++ at 100 ppm)
[2] = tested on: Pseudoperonospora cubensis (downy mildew); assay: Greenhouse Test 1, foliar spray fungicide screen (DOWN MDEW), host squash; settings: disease control rating, 400 ppm (+++ at 100 ppm)
[3] = tested on: Twospotted spider mites (Tetranychus urticae Koch); assay: Mite/insect screen, sprayed squash cotyledons (SM); settings: Tetranychus urticae, percent mortality, read-out: SM RESULTS %; for mortality at 200 ppm: spray rate 200 ppm; for mortality at 400 ppm: spray rate 400 ppm
How it was run: (§1)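 Acetone/alcohol (50:50) + emulsifier blends 23 g/L and 13 g/L; water dilution to test concs. Spray both leaf surfaces to runoff, dry 1 h. For armyworm, 2 excised uninfested leaves into Petri dish with larvae. Readout: % mortality, phytotoxicity.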

[4] = tested on: southern armyworm (Spodopetra eridania Cramer); assay: Mite/insect screen, sprayed squash leaves (SAW); settings: Spodoptera eridania, percent mortality, read-out: SAW RESULTS %; for mortality at 200 ppm: spray rate 200 ppm; for mortality at 400 ppm: spray rate 400 ppm
How it was run: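 Water-diluted formulations of each compound (acetone/alcohol 50:50 with 23 g/L and 13 g/L emulsifier blends) are sprayed over both leaf faces to runoff. After a standard exposure period, percent kill and phytotoxicity are recorded.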

[5] = tested on: melon aphids (Aphis gossypii Glover); assay: Mite/insect screen, sprayed squash cotyledons (MA); settings: Aphis gossypii, percent mortality, read-out: MA RESULTS %; for mortality at 200 ppm: spray rate 200 ppm; for mortality at 400 ppm: spray rate 400 ppm
How it was run: as §1

[6] = tested on: Erysiphe graminis tritici (powdery mildew); assay: Greenhouse Test 1, foliar spray fungicide screen (POWD MDEW), host wheat; settings: disease control rating, 400 ppm (+++ at 100 ppm)
[7] = tested on: Puccinia recondita tritici (leaf rust); assay: Greenhouse Test 1, foliar spray fungicide screen (LEAF RUST), host wheat; settings: disease control rating, 400 ppm (+++ at 100 ppm)
[8] = tested on: Southern corn rootworm (Diabrotica undecimpuctata howardi Barber); assay: Mite/insect screen, soil treatment (CRW); settings: Diabrotica, percent mortality, soil treatment, read-out: CRW RESULTS %; for mortality at 12 ppm: CRW rate 12.00 ppm; for mortality at 24 ppm: CRW rate 24.00 ppm
How it was run: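 Five 2–3 instar larvae were placed on dry sandy soil with a presoaked corn seed after the soil had received 1 mL of compound solution and dried 6–12 h; cups were kept capped at 23°C. Mortality (%) and phytotoxicity were read after standard exposure. Formulation: acetone/alcohol with emulsifiers, water-diluted.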

[9] = tested on: Botrytis cinerea (gray mold); assay: Greenhouse Test 1, foliar spray fungicide screen (GRAY MOLD), host grape berries; settings: disease control rating, 400 ppm (+++ at 100 ppm)

| Structure (SMILES) | RICE BLAST [1] | DOWN MDEW [2] | mortality at 200 ppm [3] [%] | mortality at 400 ppm [3] [%] | mortality at 200 ppm [4] [%] | mortality at 400 ppm [4] [%] | mortality at 200 ppm [5] [%] | mortality at 400 ppm [5] [%] | POWD MDEW [6] | LEAF RUST [7] | mortality at 12 ppm [8] [%] | mortality at 24 ppm [8] [%] | GRAY MOLD [9] |
| --- | --- | --- | --- | --- | --- | --- | --- | --- | --- | --- | --- | --- | --- |
| Clc1ccc(CCCc2ncnc3ccccc23)cc1 [Example 117, 4-[3-(4-chlorophenyl)propyl]quinazoline] | ++ (++ = 90-100% control at 400 ppm) | ++ (++ = 90-100% control at 400 ppm) | 100 | 0 | 0 | 0 | 90 | 0 | +++ (+++ = 90-100% control at 100 ppm) | +++ (+++ = 90-100% control at 100 ppm) | 0 | 0 | - (- = 0-19% control at 400 ppm) |
| CC(C)c1ccccc1CCOc1ncnc2c(F)cccc12 [Example 195, 8-fluoro-4-[2-[2-(i-propyl)phenyl]ethoxy]quinazoline] | +++ (+++ = 90-100% control at 100 ppm) | ++ (++ = 90-100% control at 400 ppm) | 0 | 0 | 0 | 0 | 80 | 0 | +++ (+++ = 90-100% control at 100 ppm) | +++ (+++ = 90-100% control at 100 ppm) | 0 | 0 | - (- = 0-19% control at 400 ppm) |
| CC(C)c1ccccc1CCOc1ncnc2ccccc12 [Example 135, 4-[2-[2-(1-methylethyl)phenyl]ethoxy]quinazoline] | +++ (+++ = 90-100% control at 100 ppm) | +++ (+++ = 90-100% control at 100 ppm) | 0 | 0 | 0 | 0 | 0 | 0 | +++ (+++ = 90-100% control at 100 ppm) | +++ (+++ = 90-100% control at 100 ppm) | 0 | 0 | - (- = 0-19% control at 400 ppm) |
| Fc1cccc2c(NCCc3ccc(Oc4ccccc4)cc3)ncnc12 [Example 101, 8-fluoro-N-[2-(4-phenoxyphenyl)ethyl]-4-quinazolinamine] | +++ (+++ = 90-100% control at 100 ppm) | +++ (+++ = 90-100% control at 100 ppm) | 100 | 100 | 100 | 0 | 80 | 100 | + (+ = 20-89% control at 400 ppm) | - (- = 0-19% control at 400 ppm) | 100 | 0 | ++ (++ = 90-100% control at 400 ppm) |
| CC(C)c1ccc(CCOc2ncnc3c(F)cccc23)cc1 [Example 16, 8-fluoro-4-[2-[4-(i-propyl)phenyl]ethoxy]-quinazoline] | +++ (+++ = 90-100% control at 100 ppm) | +++ (+++ = 90-100% control at 100 ppm) | – | 0 | – | 0 | – | 0 | +++ (+++ = 90-100% control at 100 ppm) | +++ (+++ = 90-100% control at 100 ppm) | – | 0 | - (- = 0-19% control at 400 ppm) |
| CC(C)c1ccc(CCCc2ncnc3ccccc23)cc1 [Example 126, 4-[3-[4-(1-methylethyl)phenyl]propyl]quinazoline] | +++ (+++ = 90-100% control at 100 ppm) | ++ (++ = 90-100% control at 400 ppm) | 100 | 100 | 0 | 0 | 100 | 80 | + (+ = 20-89% control at 400 ppm) | + (+ = 20-89% control at 400 ppm) | 0 | 0 | - (- = 0-19% control at 400 ppm) |
| Cc1ccc(CCNc2ncnc3c(F)cccc23)cc1 [Example 77, 8-fluoro-N-[2-(4-methylphenyl)ethyl]-4-quinazolinamine] | ++ (++ = 90-100% control at 400 ppm) | - (- = 0-19% control at 400 ppm) | 0 | 0 | 0 | 0 | 0 | 0 | - (- = 0-19% control at 400 ppm) | ++ (++ = 90-100% control at 400 ppm) | 0 | 0 | - (- = 0-19% control at 400 ppm) |
| CC(COc1ncnc2ccccc12)c1ccc(-c2ccccc2)cc1 (stereo not shown) [Example 187, 4-[2-(1,1'-biphenyl)-4-ylpropoxy]quinazoline] | +++ (+++ = 90-100% control at 100 ppm) | + (+ = 20-89% control at 400 ppm) | 0 | 0 | 0 | 0 | 0 | 0 | - (- = 0-19% control at 400 ppm) | + (+ = 20-89% control at 400 ppm) | 0 | 0 | - (- = 0-19% control at 400 ppm) |
| Fc1cccc2c(NCCc3ccc(-c4ccccc4)cc3)ncnc12 [Example 102, 8-fluoro-N-[2-(1,1'-biphenyl)-4-ylethyl]-4-quinazolinamine] | +++ (+++ = 90-100% control at 100 ppm) | ++ (++ = 90-100% control at 400 ppm) | 80 | 90 | 80 | 100 | 80 | 90 | ++ (++ = 90-100% control at 400 ppm) | +++ (+++ = 90-100% control at 100 ppm) | 0 | 0 | ++ (++ = 90-100% control at 400 ppm) |
| Fc1cccc2c(OCCc3ccccc3C(F)(F)F)ncnc12 [Example 56, 8-fluoro-4-[2-[2-(trifluoromethyl)phenyl]ethoxy]quinazoline] | +++ (+++ = 90-100% control at 100 ppm) | +++ (+++ = 90-100% control at 100 ppm) | 40 | 0 | 0 | 0 | 100 | 0 | +++ (+++ = 90-100% control at 100 ppm) | +++ (+++ = 90-100% control at 100 ppm) | 0 | 0 | - (- = 0-19% control at 400 ppm) |
| CC(C)c1ccc(CCOc2ncnc3ccccc23)cc1 [Example 88, 4-[2-[4-(i-propyl)phenyl]ethoxy]quinazoline] | +++ (+++ = 90-100% control at 100 ppm) | +++ (+++ = 90-100% control at 100 ppm) | 100 | 0 | 0 | 100 | 100 | 0 | +++ (+++ = 90-100% control at 100 ppm) | +++ (+++ = 90-100% control at 100 ppm) | 0 | 0 | - (- = 0-19% control at 400 ppm) |
